Reference: patent publication US8153808B2, “Dihydropyridone amides as P2X7 modulators” (Roche Palo Alto LLC, priority 2008, dated 2012)

Target: T1, P2X7 (UniProt Q99572)
T1 sequence (Q99572 1-595): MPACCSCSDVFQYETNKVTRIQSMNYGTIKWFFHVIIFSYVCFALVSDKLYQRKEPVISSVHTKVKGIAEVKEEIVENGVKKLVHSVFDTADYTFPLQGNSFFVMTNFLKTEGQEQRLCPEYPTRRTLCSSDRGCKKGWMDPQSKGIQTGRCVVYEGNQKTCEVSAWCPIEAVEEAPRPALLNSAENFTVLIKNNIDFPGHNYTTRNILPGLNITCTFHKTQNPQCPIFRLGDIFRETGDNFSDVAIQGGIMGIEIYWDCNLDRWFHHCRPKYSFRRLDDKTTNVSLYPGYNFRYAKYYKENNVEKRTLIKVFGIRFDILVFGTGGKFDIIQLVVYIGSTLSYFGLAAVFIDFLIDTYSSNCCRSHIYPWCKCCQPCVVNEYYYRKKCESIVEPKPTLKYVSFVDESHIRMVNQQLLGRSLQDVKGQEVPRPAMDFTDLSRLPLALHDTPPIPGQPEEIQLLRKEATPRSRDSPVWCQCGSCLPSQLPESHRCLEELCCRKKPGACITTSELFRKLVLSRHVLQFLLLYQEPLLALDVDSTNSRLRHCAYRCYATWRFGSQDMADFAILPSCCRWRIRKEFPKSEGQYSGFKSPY
Experiment: pIC50 values for P2X7 (Table 1)
Type: cell-based
Description: Intracellular Calcium Flux (FLIPR) Assay
Stock solutions of compounds were prepared from powders as a 10 mM DMSO stock solution. These solutions were stored at RT during the two week period of these experiments to prevent freeze-thaw of the DMSO stocks. The DMSO stocks were added to the appropriate assay buffer at a concentration of 10 μM, and then diluted serially to the final concentrations that were tested. […] The aqueous solutions of compounds as well as ATP (Sigma A7699) and BzATP (Sigma B6396) were prepared fresh for each day of experiment.
1321N1 cells stably expressing the full length human P2X7 gene (1321N1-hP2X7) and HEK293 cells stably expressing the full length rat P2X7 gene (HEK293-rP2X7) were obtained from the Roche Cell Culture Facility. 1321N1-hP2X7 cells were grown in Dulbecco's Modified Eagle's Medium (DMEM) high glucose supplemented with 10% FBS and 250 μg/mL G418. HEK293-rP2X7 cells were grown in DMEM/F-12 supplemented with 10% FBS, 1 mM CaCl2, 2 mM MgCl2, 2 mM L-Glutamine and 500 μg/ml G418. Cells were split such that they never became >70% confluent.
On the day prior to the experiment, 1321N1-hP2X7 or HEK293-rP2X7 cells were released into suspension with calcium-free PBS+Versene and washed by centrifugation with calcium-free PBS to remove the Versene. Cells were resuspended in growth medium at a density of 2.5×10^5 cells/mL and seeded into black walled, clear bottom 96 well plates (50,000 cells/well) approximately 18 hr prior to intracellular calcium flux experiments.
On the day of the experiment, plates were washed with FLIPR buffer (calcium- and magnesium-free Hank's Balanced Salt Solution (HBSS) supplemented with 10 mM Hepes, 2.5 mM probenecid and 2 mM calcium chloride) using a BIO-TEK 96 channel plate washer and incubated with […] fluo-3 dye at 37° C. for one hr. The dye was then removed by plate washing and the cells were allowed to equilibrate for 20 min at room temperature with antagonist or vehicle (FLIPR buffer). Agonist (100 μM BzATP final concentration for hP2X7; 5 μM BzATP final concentration or rP2X7) was added online with the FLIPR and fluorescence measurements made at 1 sec intervals for 60 sec followed by 3 sec intervals for a further 4 min (5 min total). A final addition of 5 μM ionomycin was made and the maximal BzATP-evoked fluorescence normalized to the maximal ionomycin-evoked fluorescence.

SMILES	pIC50 P2X7
CCOc1cc(Br)c(CC(=O)N2C=CC(=O)C[C@H]2c2ccc(F)cc2)cc1OC [Compound 17, (S)-1-[2-(2-Bromo-4-ethoxy-5-methoxy-phenyl)-acetyl]-2-(4-fluoro-phenyl)-2,3-dihydro-1H-pyridin-4-one]	6.535
COc1cc(Br)c(CC(=O)N2C=CC(=O)C[C@H]2c2ccc(F)cc2)cc1OCC1CC1 [Compound 18, (S)-1-[2-(2-Bromo-5-cyclopropylmethoxy-4-methoxy-phenyl)-acetyl]-2-(4-fluoro-phenyl)-2,3-dihydro-1H-pyridin-4-one]	6.93
COc1cc(Br)c(CC(=O)N2C=CC(=O)C[C@H]2c2ccc(F)cc2)cc1OC [Compound 19, (S)-1-[2-(2-Bromo-4,5-dimethoxy-phenyl)-acetyl]-2-(4-fluoro-phenyl)-2,3-dihydro-1H-pyridin-4-one]	7.6125
COc1cc(CC(=O)N2C=CC(=O)C[C@H]2c2ccc(F)cc2)c(Br)cc1OCC1CC1 [Compound 20, (S)-1-[2-(2-Bromo-4-cyclopropylmethoxy-5-methoxy-phenyl)-acetyl]-2-(4-fluoro-phenyl)-2,3-dihydro-1H-pyridin-4-one]	6.08
COc1cc(Br)c(CC(=O)N2C=CC(=O)CC2c2ccc(F)cc2)cc1OC (stereo not drawn) [Compound 22, 1-[2-(2-Bromo-4,5-dimethoxy-phenyl)-acetyl]-2-(4-fluoro-phenyl)-2,3-dihydro-1H-pyridin-4-one]	7.165
COc1cc(Br)c(CC(=O)N2C=CC(=O)C[C@H]2c2ccc(F)cc2)cc1OC(F)F [Compound 24, (S)-1-[2-(2-Bromo-5-difluoromethoxy-4-methoxy-phenyl)-acetyl]-2-(4-fluoro-phenyl)-2,3-dihydro-1H-pyridin-4-one]	6.305
COc1cc(Br)c(CC(=O)N2C=CC(=O)CC2c2cccc(Cl)c2)cc1OC (stereo not drawn) [Compound 25, 1-[2-(2-Bromo-4,5-dimethoxy-phenyl)-acetyl]-2-(3-chloro-phenyl)-2,3-dihydro-1H-pyridin-4-one]	6.28
O=C1C=CN(C(=O)Cc2cc(OC(F)F)c(OC(F)F)cc2Br)[C@H](c2ccc(F)cc2)C1 [Compound 26, (S)-1-[2-(2-Bromo-4,5-bis-difluoromethoxy-phenyl)-acetyl]-2-(4-fluoro-phenyl)-2,3-dihydro-1H-pyridin-4-one]	5.895
COc1cc(Br)c(CC(=O)N2C=CC(=O)CC2C2CCCC2)cc1OC (stereo not drawn) [Compound 27, 1-[2-(2-Bromo-4,5-dimethoxy-phenyl)-acetyl]-2-cyclopentyl-2,3-dihydro-1H-pyridin-4-one]	6.35
COc1cccc(C2CC(=O)C=CN2C(=O)Cc2cc(OC)c(OC)cc2Br)c1 (stereo not drawn) [Compound 28, 1-[2-(2-Bromo-4,5-dimethoxy-phenyl)-acetyl]-2-(3-methoxy-phenyl)-2,3-dihydro-1H-pyridin-4-one]	5.415
COc1cc(CC(=O)N2C=CC(=O)C[C@H]2c2ccc(F)cc2)c(Br)cc1C [Compound 29, (S)-1-[2-(2-Bromo-5-methoxy-4-methyl-phenyl)-acetyl]-2-(4-fluoro-phenyl)-2,3-dihydro-1H-pyridin-4-one]	6.625
COc1cc(CC(=O)N2C=CC(=O)C[C@H]2c2ccc(F)cc2)c(Br)cc1Cl [Compound 30, (S)-1-[2-(2-Bromo-4-chloro-5-methoxy-phenyl)-acetyl]-2-(4-fluoro-phenyl)-2,3-dihydro-1H-pyridin-4-one]	6.4
COc1cc(CC(=O)N2C=CC(=O)CC2c2ccc(F)cc2)c(Br)cc1C (stereo not drawn) [Compound 31, 1-[2-(2-Bromo-5-methoxy-4-methyl-phenyl)-acetyl]-2-(4-fluoro-phenyl)-2,3-dihydro-1H-pyridin-4-one]	6.59
COc1cc(CC(=O)N2C=CC(=O)CC2c2ccc(F)cc2)c(Br)cc1Cl (stereo not drawn) [Compound 32, 1-[2-(2-Bromo-4-chloro-5-methoxy-phenyl)-acetyl]-2-(4-fluoro-phenyl)-2,3-dihydro-1H-pyridin-4-one]	6.17
Cc1cc(Br)c(CC(=O)N2C=CC(=O)CC2c2ccc(F)cc2)cc1O (stereo not drawn) [Compound 33, 1-[2-(2-Bromo-5-hydroxy-4-methyl-phenyl)-acetyl]-2-(4-fluoro-phenyl)-2,3-dihydro-1H-pyridin-4-one]	6.18
COc1cc(Br)c(CC(=O)N2C=CC(=O)CC2CC2CCCCC2)cc1OC (stereo not drawn) [Compound 34, 1-[2-(2-Bromo-4,5-dimethoxy-phenyl)-acetyl]-2-cyclohexylmethyl-2,3-dihydro-1H-pyridin-4-one]	5.94
COc1cc(Br)c(CC(=O)N2C=CC(=O)CC2c2cccc(F)c2)cc1OC (stereo not drawn) [Compound 35, 1-[2-(2-Bromo-4,5-dimethoxy-phenyl)-acetyl]-2-(3-fluoro-phenyl)-2,3-dihydro-1H-pyridin-4-one]	6.815
COc1cc(CC(=O)N2C=CC(=O)C[C@H]2c2ccc(F)cc2)c(Br)cc1F [Compound 36, (S)-1-[2-(2-Bromo-4-fluoro-5-methoxy-phenyl)-acetyl]-2-(4-fluoro-phenyl)-2,3-dihydro-1H-pyridin-4-one]	7.55
COc1cc(Br)c(CC(=O)N2C=CC(=O)CC2c2cccc(C)c2)cc1OC (stereo not drawn) [Compound 37, 1-[2-(2-Bromo-4,5-dimethoxy-phenyl)-acetyl]-2-m-tolyl-2,3-dihydro-1H-pyridin-4-one]	6.425
COc1cc(Br)c(CC(=O)N2C=CC(=O)CC2c2ccc(C)cc2)cc1OC (stereo not drawn) [Compound 38, 1-[2-(2-Bromo-4,5-dimethoxy-phenyl)-acetyl]-2-p-tolyl-2,3-dihydro-1H-pyridin-4-one]	5.325
COc1cc(Br)c(CC(=O)N2C=CC(=O)CC2c2cccc(C#N)c2)cc1OC (stereo not drawn) [Compound 39, 3-{1-[2-(2-Bromo-4,5-dimethoxy-phenyl)-acetyl]-4-oxo-1,2,3,4-tetrahydro-pyridin-2-yl}-benzonitrile]	5.45
COc1ccc(CC(=O)N2C=CC(=O)CC2c2ccc(F)cc2)c(OC)c1 (stereo not drawn) [Compound 40, 1-[2-(2,4-Dimethoxy-phenyl)-acetyl]-2-(4-fluoro-phenyl)-2,3-dihydro-1H-pyridin-4-one]	5.843
COc1cc(Br)c(CC(=O)N2C=CC(=O)C[C@H]2c2cccc(F)c2)cc1OC [Compound 41, (S)-1-[2-(2-Bromo-4,5-dimethoxy-phenyl)-acetyl]-2-(3-fluoro-phenyl)-2,3-dihydro-1H-pyridin-4-one]	7.94
COc1ccc(OC)c(CC(=O)N2C=CC(=O)CC2c2ccc(F)cc2)c1 (stereo not drawn) [Compound 42, 1-[2-(2,5-Dimethoxy-phenyl)-acetyl]-2-(4-fluoro-phenyl)-2,3-dihydro-1H-pyridin-4-one]	5.995
COCCOc1cc(CC(=O)N2C=CC(=O)C[C@H]2c2ccc(F)cc2)c(Br)cc1F [Compound 43, (S)-1-{2-[2-Bromo-4-fluoro-5-(2-methoxy-ethoxy)-phenyl]-acetyl}-2-(4-fluoro-phenyl)-2,3-dihydro-1H-pyridin-4-one]	7.89
COc1ccc(CC(=O)N2C=CC(=O)C[C@H]2c2ccc(F)cc2)cc1OC [Compound 44, (S)-1-[2-(3,4-Dimethoxy-phenyl)-acetyl]-2-(4-fluoro-phenyl)-2,3-dihydro-1H-pyridin-4-one]	6.003
COc1ccc(CC(=O)N2C=CC(=O)C[C@H]2c2cccc(F)c2)cc1OC [Compound 45, (S)-1-[2-(3,4-Dimethoxy-phenyl)-acetyl]-2-(3-fluoro-phenyl)-2,3-dihydro-1H-pyridin-4-one]	6.006
